Drawing on PubChem BioAssay AID2305 (GlaxoSmithKline (GSK), 2010), this text covers IC50 for 41 molecules.

The structures appear in SMILES notation. “And” between values parts separate entries of the source, which are not always exact repeats. Equal values may be shown once.

As a reminder, the IC50 is the concentration that inhibits the measured activity by half. A high value points to weaker potency in that assay.

The test has as its system P. falciparum 3D7 growth, pLDH absorbance. Put plainly: blood-stage malaria parasite growth potency – strain 3D7, dose response (AID 2305).
Turning to `O=S(=O)(NCCN1CCCC1)c1cccc(-c2ccccc2CNC2Cc3ccccc3C2)c1`, the half-inhibitory concentration (IC50) is 740 nM.

As for `Cc1cc(=O)oc2c1ccc1oc(C(O)c3ccc(Cl)cc3)c(C)c12` (stereo unspecified), the IC50 was 130 nM. Compared with the last molecule, the IC50 is about 5.7-fold lower.

Turning to `CCCSc1nc2c(c(=O)n1Cc1ccco1)C1(CCCCC1)Cc1ccccc1-2`, the concentration for half-maximal inhibition (IC50) worked out at 420 nM. Against the preceding molecule, the IC50 is about 3.2-fold higher.

Regarding `Cc1cccc(CN2CCCN(Cc3ccc(C(=O)Nc4ccc(Cl)cc4)cc3)CC2)c1`, the 50% inhibitory concentration (IC50) was determined as 600 nM.

Molecule `CC(C)(C)OC(=O)N1CCC(C2CCN(C(=O)OC(C)(C)C)CC2)CC1` gave an IC50 of 1160 nM.

`COc1ccc(CNCc2ccc(-c3ccc(-c4nc5ccc(F)cc5[nH]4)cc3)cc2)cc1`: the half-maximal inhibitory concentration (IC50) is 250 nM.

`O=C(Nc1cccc(OCc2ccccc2)c1)c1ccc(CN2CCC(Cc3ccccc3)CC2)cc1` had a concentration for half-maximal inhibition (IC50) of 850 nM.

Turning to `O=C(Nc1cccc(C(F)(F)F)c1)c1ccc(S(=O)(=O)NCC2CCCN(CC3CCCCC3)C2)cc1` (stereo unspecified), the half-maximal inhibitory concentration (IC50) was determined as 900 nM.

Consider `COc1ccc(CNCc2ccc(-c3ccc(-c4nc5c(C)cccc5[nH]4)cc3)cc2)cc1`, for which the IC50 is 340 nM.

In turn, `CCCCc1cc(O)c2c(c1)OC(C)(C)C=C2C1=CCN(Cc2ccccc2)CC1` returned an IC50 of 250 nM.

Molecule `Cc1cc(C(F)(F)F)n2nc(C(=O)N(C)Cc3cncn3Cc3ccc(F)cc3)cc2n1` displayed a 50% inhibitory concentration (IC50) of 830 nM.

`CCCCCCCNCc1c(O)ccc2c(CNCCCCCCC)c(O)ccc12`: the IC50 is 150 nM.

Take `CN(C)CCCOc1ccc(-c2csc(NC(N)=NCc3ccccc3)n2)cc1`: the IC50 came out at 280 nM.

The molecule `Cc1cccc2[nH]c(-c3ccc(-c4cccc(CNCCNC(=O)c5ccnn5C)c4)s3)nc12` displayed an IC50 of 220 nM.

`Cc1cc(Nc2cc(Cl)cc(Cl)c2)nc(N)n1` yielded an IC50 of 1140 nM.

In the case of `C#C[C@H]1O[C@@H](n2cnc3c(Nc4cc(Br)cc(C(F)(F)F)c4)ncnc32)[C@H](O)[C@@H]1O`, the 50% inhibitory concentration (IC50) is 1030 nM. This IC50 and that of the molecule before are within 1.5-fold of each other.

`O=C(Nc1ccc([N+](=O)[O-])cc1Cl)c1cc2ccccc2cc1O` came in with an IC50 of 1010 nM.

The molecule `CN(Cc1ccccc1)C1CCN(CCc2c[nH]c3ccc(F)cc23)CC1` had a concentration for half-maximal inhibition (IC50) of 600 nM.

In turn, `Cc1cccc(-c2ccc3c(c2)CC(NCc2cccc(-n4ccnc4)c2)C3)c1` (stereo unspecified) showed an IC50 of 870 nM. The IC50 values of the last two molecules are within 1.5-fold of each other.

Molecule `COc1ccc(CN2CCCN(Cc3cccc(NC(=O)c4ccc(-c5ccccc5)cc4)c3)CC2)cc1` had a concentration for half-maximal inhibition (IC50) of 940 nM.

Consider `CCc1nc(N)nc(N)c1CCCOc1ccccc1Cl`, for which the IC50 worked out at 100 nM. This IC50 is about 9.4-fold lower than that of the molecule before.

Turning to `Cc1c(CNCCCNc2nc3ccncc3[nH]2)sc(Br)c1Br`, the IC50 stood at 1040 nM.

Molecule `CN(CCc1ccccn1)Cc1ccc(-c2ccc(-c3nc4ccccc4[nH]3)s2)cc1` displayed a concentration for half-maximal inhibition (IC50) of 590 nM.

For `CC(C)CCn1c(Sc2ccc(C#N)c([N+](=O)[O-])c2)nnc1-c1cccc(Cl)c1`, the 50% inhibitory concentration (IC50) amounted to 670 nM.

Molecule `Cc1nn(-c2ccc(Cl)cc2)c2[nH]c(CN3CCN(c4cccc(Cl)c4)CC3)cc(=O)c12` gave a concentration for half-maximal inhibition (IC50) of 240 nM. This IC50 is about 2.8-fold lower than that of the molecule before.

Consider `COc1ccc(CN2CCCN(Cc3ccc(C(=O)Nc4ccc(Cl)cc4)cc3)CC2)cc1`, for which the concentration for half-maximal inhibition (IC50) was determined as 920 nM.

`O=C(CCCC(=O)Nc1ccc(C2=NCCN2)cc1)Nc1ccc(C2=NCCN2)cc1` showed an IC50 of 110 nM. Compared with the last molecule, the IC50 is about 8.4-fold lower.

On to `CCCC(C)Nc1nc(C)cc(N[C@@H](Cc2ccccc2)C(=O)NCc2ccc(C)cc2)n1` (stereo partly specified), for which the IC50 was 1120 nM. This IC50 is about 10-fold higher than that of the molecule before.

`CS(=O)(=O)c1cc2c(Nc3ccc(N4CCOCC4)cc3)c(C(N)=O)cnc2cc1Br` showed a 50% inhibitory concentration (IC50) of 250 nM.

`Cc1ccc(Cn2cnc3cc(C(=O)Nc4ccc(-c5ccc(CN(C)C)cc5)cc4)ccc3c2=O)o1`: the IC50 came to 1260 nM.

On to `CCOc1c(OC)ccc2c1CCN(CCN1CCC(CNC(=O)c3ccc(-c4ccc(C(F)(F)F)cc4)cc3)CC1)C2`, for which the IC50 was found to be 850 nM.

Take `CN(CCc1ccccc1)c1ncc(-c2ccccc2CNCc2ccccc2O)cn1`: the half-maximal inhibitory concentration (IC50) turned out to be 1020 nM.

On to `O=C(/C=C/c1ccccc1O)NC1CCC(CN2CCC(c3c[nH]c4ccccc34)CC2)CC1` (stereo unspecified), for which the IC50 was 760 nM and 460 nM.

As to `COc1cccc(-c2nc3c(N4CCN(c5ccncc5)CC4)cccc3n2CC2CCCCCN2)n1` (stereo unspecified), the IC50 was 1060 nM.

The molecule `COc1ccc(C(=O)N2CCN(c3ccc([N+](=O)[O-])c(NC4CC4)c3)CC2)cc1Br` registered an IC50 of 800 nM. This IC50 and that of the molecule before are within 1.5-fold of each other.

Turning to `O=C(Nc1ccc(N2CCN(Cc3c[nH]c4cc(F)ccc34)CC2)cc1)c1ccccc1-c1ccc(C(F)(F)F)cc1`, the concentration for half-maximal inhibition (IC50) came to 990 nM. The IC50 values of the last two molecules are within 1.5-fold of each other.

Consider `CC(=O)Nc1cccc(-c2cnc(N)c3cc(-c4ccc5c(c4)OCO5)ccc23)c1`, for which the 50% inhibitory concentration (IC50) came to 490 nM.

In the case of `Cc1cc(C(=O)Nc2ccc3c(c2)CCN3C2CCN(Cc3csc4ccccc34)C2)no1` (stereo unspecified), the 50% inhibitory concentration (IC50) was found to be 120 nM.

On to `CCOc1ncccc1CN1CCC(N2CCc3cc(NC(=O)c4cc(C)on4)ccc32)C1` (stereo unspecified), for which the half-maximal inhibitory concentration (IC50) amounted to 310 nM.

In the case of `CCNc1cc(C(=O)N[C@@H](Cc2ccccc2)[C@H](O)CN[C@@H](C)c2ccccc2)cc(N2CCCC2=O)c1`, the IC50 amounted to 670 nM.

As to `CN(C)C(=O)CN1CCN(c2ncnc(N3CCc4c([nH]c5ccccc45)[C@@H]3c3ccc4c(c3)CCO4)n2)CC1`, the 50% inhibitory concentration (IC50) came out at 870 nM. The IC50 values of the last two molecules are within 1.5-fold of each other.
